# Assay results published in a melting point compilation (Tetko et al.; mined from patent text by program, amines drawn as free bases though some values may be those of a salt).
row,Compound,melting point [°C]
1,C[C@@]1(O)CCCC[C@H]1n1nc(-c2c(-c3ccccc3)nn3ccccc23)ccc1=O (relative stereo),197 to 198
2,Cc1c(-c2ccc(OCC3CC3)cc2)nc2n(Cc3c(F)cccc3F)cc(Br)c(=O)n12,230 to 231
3,O=C(OCc1ccc(-c2ccccc2)cc1)c1cccc(CCl)c1,102
4,CN(C)c1ccc(NC(=O)N(CC2CCCCC2)C[C@H]2CCCC[C@H]2CN(CC2CCCCC2)C(=O)Nc2ccc(N(C)C)cc2)cc1,102 to 106
5,COc1ccc(N(N)c2cc(Cl)nc(Cl)n2)cc1,113 to 115
6,CCCN(CCC)Cc1nc(-c2ncn3c2CN(C)C(=O)c2c-3cccc2C(F)(F)F)no1,216 to 218
7,O=C(c1ccc(C(=O)N2CCC[C@@H]3CCCC[C@H]32)cc1)N1CCCCC1 (relative stereo),136 to 137
8,CC1=NCC2CN=C(c3ccccc3F)c3cc(Cl)ccc3N12 (centres undefined),142 to 144
9,Cn1c2ccccc2c2cc(C=O)c3ccccc3c21,188 to 192
10,O=C(OCC(O)CO)c1cc(F)ccc1Nc1ccnc2cc(C(F)(F)F)ccc12 (centres undefined),167 to 168
11,COC(=O)c1c(C)nc(C)c(C(=O)OCC2CCCO2)c1-c1cccc(NC(C)=O)c1 (centres undefined),196 to 198
12,COC12CC(C(C)COC(=O)c3[nH]c(C)cc3C)CN(C)C1Cc1cn(C)c3cccc2c13 (centres undefined),128 to 130
13,O=C1NC(=O)C(Cc2ccc(C(=O)CCCc3ccccc3)cc2)S1 (centres undefined),120 to 122
14,CN1Cc2cccc3c2c(cn3C)S1(=O)=O,190
15,CCCCNC(=O)NS(=O)(=O)c1c(C(=O)OCC)cnn1C,117 to 119
16,CC(C)(C)c1cc(CCc2ccccc2NC(=O)N2CCCCCC2)cc(C(C)(C)C)c1O,136 to 138
17,CCC(C)(C)c1cc(C(=O)O)c(O)c(C(C)(C)CC)c1,132 to 133
18,Oc1cccc(-c2noc3ccsc23)c1,114 to 116
19,Fc1cccc(F)c1C1=NC(c2ccc(OCc3ccc4ccccc4c3)cc2)CO1 (centres undefined),148 to 150
20,CCCCC[C@H]1CC[C@H](CC(=O)c2ccc(-c3ccc(CC)cc3F)cc2)CC1,72 to 73
21,CCCCCCCCCCC1(C)OCC(C=Cc2ccc(-c3ccccc3)cc2)OO1 (centres undefined),86 to 90

row,Compound,melting point [°C]
1,CC(=O)OC1Cc2ccccc2N(C#N)c2ccccc21 (centres undefined),108 to 119
2,COC(=O)c1cc2c(nc1C)C(CBr)CCCC2 (centres undefined),66 to 67
3,Cc1cc(COc2cccc3c2CN(C2CCC(=O)NC2=O)C3=O)nn1C (centres undefined),214 to 216
4,Cc1nc(-n2ccc(O)cc2=O)sc1C(=O)NCc1cccnc1,238 to 240
5,CCC(=O)OCCN1CCc2cc(Nc3ncc(Cl)c(Nc4ccccc4S(=O)(=O)N(C)C)n3)c(OC)cc2CC1,40
6,CC(O)c1cc2c(c(Cl)n1)OCC2C (centres undefined),67 to 68
7,O=C1CCC(c2ccc(-c3ccccc3F)cc2)O1 (centres undefined),74 to 75
8,CC(=O)N1CCC(C2=C(C#N)C(c3cccc4nonc34)c3c[nH]nc3N2)CC1 (centres undefined),248
9,COc1c(C)c(C)c(OC)c(Cn2ccnc2)c1C,82 to 83
10,FC(F)(F)c1cccc(CO[C@H]2CO[C@@H](c3ccccc3)OC2)c1,115 to 116
11,N#CC(C(=O)Nc1ccccc1)C(=O)c1nn(-c2ccccc2)c2c1Cc1ccc(Cl)cc1-2 (centres undefined),259 to 263
12,COc1ccccc1-c1cc(Cl)cc2c1NC(CN)CO2 (centres undefined),100
13,O=C(NCC1Cc2ccc3ccccc3c2O1)OCc1ccccc1 (centres undefined),110 to 112
14,C=CCSc1cc(-c2ccc(C(F)(F)F)cc2)ccc1C#N,89 to 90
15,Cc1cc2c(s1)S(=O)CCc1cc(=O)n(-c3ccc(Cl)cc3)nc1-2 (centres undefined),174 to 175
16,CC(=O)Nc1ccc(-c2ccccc2C#N)cc1C,135 to 143
17,COc1ccc(Oc2cccc3ncnc(NC(C)=O)c23)cc1,174 to 175
18,O=CNc1ccc2c(c1)nc(/C=C/c1ccccc1)n2-c1ccccn1,190 to 192
19,COc1ccc2c(c1)c(SC)c(C(N)=O)n2C,204 to 206
20,OCCC(c1ccccc1)(c1ccccc1)c1ccccc1,103 to 106
21,CC(=O)Nc1cc([N+](=O)[O-])ccc1OCCCN(C)C,69

row,Compound,melting point [°C]
1,O=C(NCC12CC3CC(CC(C3)C1)C2)c1cc(CC[C@H](O)CO)ccc1Cl,145 to 147
2,COC(=O)CC[C@H](NC(=O)CCCCC=Cc1cnc2nc(NC(=O)C(C)(C)C)nc(O)c2c1)C(=O)OC,79 to 81
3,NC(=O)c1cccc(-c2nc(-c3ccccc3)c(-c3nc4ccccc4c(=O)n3-c3ccccc3Cl)s2)c1,212 to 214
4,CCNC(=NS(=O)(=O)c1ccc(O)cc1)N1N=CCC1c1ccccc1 (centres undefined),158 to 160
5,O=S1(=O)N(CCCN2CCN(c3ccc(F)cc3)CC2)c2cccc3c2N1CCC3,98
6,COC(=O)[C@H](Cc1ccc(NC(=O)c2cc(C#N)ccc2Cl)cc1)NC(=O)OC(C)(C)C,185 to 187
7,CCCSc1c[nH]nc1C1=CCCN(C)C1,111
8,COCn1ccnc1C(O)(c1ccccc1)c1cccc(C(F)(F)F)c1 (centres undefined),152 to 154
9,CN(c1cccc2cc(C3=NCC4(CCN(CC(C)(C)O)CC4)S3)[nH]c12)S(=O)(=O)c1cccs1,191
10,NC(=O)[C@@H]1[C@H](Nc2nc(Nc3ccc4c(c3)CCC(NCC(F)F)CC4)ncc2Cl)[C@H]2C=C[C@@H]1C2 (some centres undefined),128
11,Cc1cc(NC(=O)Cc2ccsc2)nc(C)c1Br,211
12,COc1ccc(N2CCN(CCn3c(=O)[nH]c4cscc4c3=O)CC2)cc1,238 to 239
13,CN1CCC(C)(O)c2cccc(CSc3nc4ccccc4[nH]3)c21 (centres undefined),156 to 157
14,CCCCOc1cccn2c(=O)cc(C)nc12,93 to 94
15,CCC(=O)N1Cc2cn[nH]c2-c2cc([N+](=O)[O-])ccc21,219 to 221
16,CC(C)(C)c1ccc(C=NOCCOc2ccc(C(=O)O)c(OCc3ccc(C(F)(F)F)cc3)c2)cc1,164 to 165
17,CC1CC(c2c[nH]c(-c3ccc(F)cc3)c2-c2ccncc2)=CCN1C (centres undefined),198 to 201
18,COc1c(NC(=O)c2ccc(Br)cc2)ccc2cc(CO)cnc12,185 to 187
19,Cn1nc(-c2ncc(Cl)cc2F)c(N)c1OC(F)F,92 to 94
20,Cc1ccc(-c2ccccc2C(=O)NC(C)(C)C)cc1,105 to 106

# Now from value to molecule:
row,melting point [°C],Compound
1,118 to 120,CSc1ccc(COC(=O)N2CCN(CC3(C)Cn4cc([N+](=O)[O-])nc4O3)CC2)cc1 (centres undefined)
2,85 to 87,CCOc1cc(CF)nc(N)n1
3,124,CCOC(=O)C1CCN(c2cc(-n3c(=O)cc(C(F)(F)F)[nH]c3=O)c(F)cc2C#N)CC1
4,198 to 200,CC(=O)NC[C@H]1CN(c2ccc(-c3nc(Cn4ccnc4)co3)c(F)c2)C(=O)O1
5,101 to 102,CS(=O)(=O)c1ccccc1CNC(=O)[C@@H]1CCCN(c2cccc3c2C(=O)N(Cc2ccncc2)C3=O)C1
6,81,CC(C)(C)C(O)(CC(Br)=CBr)Cn1cncn1 (centres undefined)
7,39 to 41,N#CCc1ccc(OC(F)F)c(OC2CCCC2)c1
8,126 to 128,CNCC1(C)Cc2cc(NC)c3c(c2C(c2ccccc2)=N1)CC(C)(C)O3 (centres undefined)
9,201 to 202,O=C(NCCCO)c1ccnc2ccccc12
10,156 to 159,CC(C)C(N)CCCCCCCCC(C)(C)C(=O)O (centres undefined)
11,270 to 272,C=CCC(c1c(Cl)c(Cl)cc2[nH]c(=O)c(=O)[nH]c12)S(C)(=O)=O (centres undefined)
12,208 to 210,CN(C(=O)OC(C)(C)C)c1cc(Oc2cc(C(C)(C)C)c(O)cc2C(C)(C)C)ccc1N
13,137 to 138,Nc1nsnc1NCCCOc1cccc(CN2CCCCC2)c1
14,> 268,Oc1ccc(-c2ncc3ncc(-c4cccnc4)cc3n2)cc1
15,66,O=C(c1cccs1)c1cnn2c(-c3cccc(-c4ccn(Cc5ccccn5)n4)c3)ccnc12
16,120 to 121,O=c1oc2cc(OCC3CO3)ccc2c2c1CCCC2 (centres undefined)
17,239 to 242,CCSC1(S)CCC2C3CCC4=CC(=O)C=CC4(C)C3(F)C(O)CC21C (centres undefined)
18,133 to 134,COc1cc([C@H]2CC[C@H](c3cc(OC)c(OC)c(OC)c3)S2)cc(OC)c1OC (relative stereo)
19,170 to 174,COc1cccc(OC)c1C(=N)N

row,melting point [°C],Compound
1,123 to 125,Cc1ccc(-c2nc(Sc3ccc(Cl)cc3)cc(N3CCN(CCO)CC3)n2)cc1
2,109 to 110,CC(C)(c1ccc(S(=O)(=O)N(CCO)CCO)cc1[N+](=O)[O-])[N+](=O)[O-]
3,> 260,O=C(O)c1ccc(NC(=O)c2ccc(Cl)cc2)cc1
4,136 to 138,CS(=O)(=O)c1ccc(-c2c(-c3ccc(F)cc3)c(OCC(=O)c3cccs3)nn2CC(=O)c2cccs2)cc1
5,108,NCC1COc2cc(Cl)cc(-c3ccccc3Cl)c2N1 (centres undefined)
6,120 to 123,CSC(=NC(=O)OC(C)(C)C)NNC(=O)NC(=O)OCc1ccccc1
7,73 to 75,CC(=CC(=O)OCCCCCCCCC(=O)O)CC1OCC(CC2OC2C(C)C(C)O)C(O)C1O (centres undefined)
8,137,COC(=O)C=Cc1ccc(NC(C)=O)c(OC)c1
9,127 to 129,COC(=O)c1sc2ccc(OC)cc2c1OC(C)C#N (centres undefined)
10,78,COC(=O)n1c(SCc2ccccn2)nc2ccccc21
11,149 to 150,N#Cc1ccc(NC(=O)c2cccc(OCc3cccc(F)c3F)c2)cc1
12,186 to 190,O=S1(=O)c2ccccc2C(CCCl)(CCCl)c2ccccc21
13,191 to 193,CCCCNC(=O)Nc1ccc(OCC)cc1C(=O)NCC1CCN(C(c2ccccc2)c2ccccc2)CC1
14,92 to 93,CC(=O)OCc1nc(C(C)C)c(Sc2cc(Cl)cc(Cl)c2)n1C
15,143 to 144,C=Cc1nc2cc(-c3ccc(C#N)cc3)ccc2o1
16,82 to 83,Cc1c(OCC(F)(F)F)ccnc1CSc1nc2ccccc2n1NCC(C)C
17,59 to 64,CCCCCCCCc1ccc(C(=O)Cc2cccc(C#N)c2)cc1
18,217 to 219,CS(=O)(=O)Nc1cc(C(c2cc(F)ccc2F)S(=O)(=O)c2ccc(Cl)cc2)c(F)cn1 (centres undefined)
